Data taken from publication PMC9005681, “Use of AD Informer Set compounds to explore validity of novel targets in Alzheimer's disease pathology” (Alzheimer's & Dementia : Translational Research & Clinical …, 2022).
Each block holds one compound with its values, some of them ahead of it.

Key:
cellular system = system: cellular system; design: method as in column References for potency and dosing (the 5th table c13); settings: published data; References for potency and dosing; cited from earlier work
[1] = target: T1, cloned human or rodent CNS receptors, channels, and transporters (PDSP panel) (Homo sapiens, UniProt P25100); assay: PDSP GPCR panel primary binding assays at 10 μM; settings: primary assay
T1 construct: expressed in transfected cells
T1 sequence (P25100 1-572): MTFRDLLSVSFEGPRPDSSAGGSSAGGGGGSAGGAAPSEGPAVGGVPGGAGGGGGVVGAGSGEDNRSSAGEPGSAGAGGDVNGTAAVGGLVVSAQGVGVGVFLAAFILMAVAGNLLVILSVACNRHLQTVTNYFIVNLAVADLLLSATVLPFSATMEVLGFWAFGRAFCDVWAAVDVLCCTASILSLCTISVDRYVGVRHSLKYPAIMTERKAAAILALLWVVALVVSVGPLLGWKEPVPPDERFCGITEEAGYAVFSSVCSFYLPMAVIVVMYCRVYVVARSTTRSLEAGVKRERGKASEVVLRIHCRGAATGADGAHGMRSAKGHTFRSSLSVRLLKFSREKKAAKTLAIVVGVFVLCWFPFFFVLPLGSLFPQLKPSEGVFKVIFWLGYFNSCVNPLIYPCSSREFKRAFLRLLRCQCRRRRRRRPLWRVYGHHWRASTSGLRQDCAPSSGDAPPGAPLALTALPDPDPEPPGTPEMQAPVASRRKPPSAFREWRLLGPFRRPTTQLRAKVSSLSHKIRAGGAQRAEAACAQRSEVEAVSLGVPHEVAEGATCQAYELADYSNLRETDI
Procedure: (§1) GPCR panel: Screening against the receptors within the PDSP panel offers an assessment of off-target pharmacological activity at cloned human or rodent CNS receptors, channels, and transporters that could confound CNS-related phenotypes. A total of 46–47 primary binding assays were run in quadruplicate on these compounds at 10 μM, with follow-up secondary binding assays in 11-point dose-response in triplicate for select compounds versus select receptors. Secondary binding assays were executed for all receptors where test compound displaced an average of >50% of radio-labeled standard ligand. As an exception, no secondary assays were carried out for H3, PBR, or GABAA. […]

[2] = target: T2, cloned human or rodent CNS receptors, channels, and transporters (PDSP panel) (Homo sapiens, UniProt P35368); assay: PDSP GPCR panel primary binding assays at 10 μM; settings: primary assay
T2 construct: expressed in transfected cells
T2 sequence (P35368 1-520): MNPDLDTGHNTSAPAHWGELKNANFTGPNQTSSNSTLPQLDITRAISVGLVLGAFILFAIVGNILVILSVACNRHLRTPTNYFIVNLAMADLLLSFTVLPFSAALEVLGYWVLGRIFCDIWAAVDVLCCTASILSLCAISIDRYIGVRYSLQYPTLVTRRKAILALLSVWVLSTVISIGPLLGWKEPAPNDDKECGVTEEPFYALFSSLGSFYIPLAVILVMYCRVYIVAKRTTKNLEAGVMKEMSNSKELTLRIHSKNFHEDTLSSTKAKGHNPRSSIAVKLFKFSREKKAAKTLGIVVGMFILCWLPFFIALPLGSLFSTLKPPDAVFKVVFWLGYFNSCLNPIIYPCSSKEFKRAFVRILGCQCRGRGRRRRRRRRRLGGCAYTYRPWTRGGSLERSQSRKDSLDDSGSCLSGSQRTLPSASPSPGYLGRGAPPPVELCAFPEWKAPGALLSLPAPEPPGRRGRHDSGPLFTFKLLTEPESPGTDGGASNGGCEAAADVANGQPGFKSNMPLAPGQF
Procedure: as §1

[3] = target: T3, cloned human or rodent CNS receptors, channels, and transporters (PDSP panel) (Homo sapiens, UniProt P25021); assay: PDSP GPCR panel primary binding assays at 10 μM; settings: primary assay
T3 construct: expressed in transfected cells
Procedure: as §1

[4] = target: T4, cloned human or rodent CNS receptors, channels, and transporters (PDSP panel) (Homo sapiens, UniProt P35372); assay: PDSP GPCR panel primary binding assays at 10 μM; settings: primary assay
T4 construct: expressed in transfected cells
Procedure: as §1

[5] = target: T5, cloned human or rodent CNS receptors, channels, and transporters (PDSP panel) (Homo sapiens, UniProt P34969); assay: PDSP GPCR panel primary binding assays at 10 μM; settings: primary assay
T5 construct: expressed in transfected cells
Procedure: as §1

[6] = target: T6, cloned human or rodent CNS receptors, channels, and transporters (PDSP panel) (Homo sapiens, UniProt P28566); assay: PDSP GPCR panel primary binding assays at 10 μM; settings: primary assay
T6 construct: expressed in transfected cells
Procedure: as §1

[7] = target: T7, cloned human or rodent CNS receptors, channels, and transporters (PDSP panel) (Homo sapiens, UniProt P20309); assay: PDSP GPCR panel primary binding assays at 10 μM; settings: primary assay
T7 construct: expressed in transfected cells
Procedure: as §1

[8] = Snapshot IV PK in CD1 mice; format: in vivo; settings: for Vd: read-out: Vss
Procedure: PK data: For snapshot PK studies, pooled plasma was analyzed at 0.5h, 1h, 2h, and 4h following
a single IV dose (3 mg/kg) in CD1 mice (2 mice per cohort) for each compound (Table 2). […]

[9] = CD1, mouse, plasma, iv, 3 mg/kg
[10] = Receptor Alpha1D, 10 μM, mean of Inhibition 1-4
[11] = Receptor Alpha1B, 10 μM, mean of Inhibition 1-4
[12] = Receptor MOR, 10 μM, mean of Inhibition 1-4
[13] = Receptor 5-HT7A, 10 μM, mean of Inhibition 1-4
[14] = Receptor 5-HT1E, 10 μM, mean of Inhibition 1-4
[15] = Receptor M3, 10 μM, mean of Inhibition 1-4

T3 sequence (P25021 whole entry): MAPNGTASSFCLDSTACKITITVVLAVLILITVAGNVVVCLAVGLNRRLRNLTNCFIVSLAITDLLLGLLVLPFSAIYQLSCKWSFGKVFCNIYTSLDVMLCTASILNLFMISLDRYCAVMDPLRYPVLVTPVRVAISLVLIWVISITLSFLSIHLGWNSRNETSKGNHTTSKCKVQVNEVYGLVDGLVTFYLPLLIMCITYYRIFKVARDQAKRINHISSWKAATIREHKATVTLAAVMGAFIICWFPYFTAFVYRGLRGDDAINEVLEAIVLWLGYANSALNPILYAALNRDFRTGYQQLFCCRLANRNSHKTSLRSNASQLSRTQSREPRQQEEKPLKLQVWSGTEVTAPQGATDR
T6 sequence (P28566 whole entry): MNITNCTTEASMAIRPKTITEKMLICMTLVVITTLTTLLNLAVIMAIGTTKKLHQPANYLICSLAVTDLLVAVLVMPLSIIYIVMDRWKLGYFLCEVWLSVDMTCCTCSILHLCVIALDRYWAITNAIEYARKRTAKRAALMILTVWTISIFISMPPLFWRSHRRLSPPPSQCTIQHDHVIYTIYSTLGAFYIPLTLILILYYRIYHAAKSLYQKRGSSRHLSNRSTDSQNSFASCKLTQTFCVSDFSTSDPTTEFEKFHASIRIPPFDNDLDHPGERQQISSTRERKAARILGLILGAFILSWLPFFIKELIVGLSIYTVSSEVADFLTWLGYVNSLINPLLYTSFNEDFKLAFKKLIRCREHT
T4 sequence (P35372 whole entry): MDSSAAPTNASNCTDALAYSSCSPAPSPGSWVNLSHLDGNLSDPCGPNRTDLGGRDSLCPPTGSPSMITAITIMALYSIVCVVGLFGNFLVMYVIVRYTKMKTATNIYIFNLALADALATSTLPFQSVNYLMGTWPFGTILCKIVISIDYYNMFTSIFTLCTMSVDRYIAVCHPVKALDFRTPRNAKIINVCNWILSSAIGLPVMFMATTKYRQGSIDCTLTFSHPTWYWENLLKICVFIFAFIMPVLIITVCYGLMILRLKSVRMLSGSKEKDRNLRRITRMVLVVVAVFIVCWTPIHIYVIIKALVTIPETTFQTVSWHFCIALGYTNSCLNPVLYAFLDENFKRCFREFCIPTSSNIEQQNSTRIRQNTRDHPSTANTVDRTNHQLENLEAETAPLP
T5 sequence (P34969 whole entry): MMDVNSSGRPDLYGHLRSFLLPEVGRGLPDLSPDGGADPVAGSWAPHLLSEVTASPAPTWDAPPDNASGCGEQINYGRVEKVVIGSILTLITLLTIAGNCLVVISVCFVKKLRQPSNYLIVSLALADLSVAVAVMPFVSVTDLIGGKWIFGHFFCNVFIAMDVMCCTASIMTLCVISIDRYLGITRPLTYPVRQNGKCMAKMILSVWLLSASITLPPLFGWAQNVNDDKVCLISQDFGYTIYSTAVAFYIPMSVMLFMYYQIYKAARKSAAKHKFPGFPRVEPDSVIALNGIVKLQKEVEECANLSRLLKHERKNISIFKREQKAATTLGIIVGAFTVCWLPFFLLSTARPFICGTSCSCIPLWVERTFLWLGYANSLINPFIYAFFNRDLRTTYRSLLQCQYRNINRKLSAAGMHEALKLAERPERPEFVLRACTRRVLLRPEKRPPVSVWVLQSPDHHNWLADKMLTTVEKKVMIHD
T7 sequence (P20309 whole entry): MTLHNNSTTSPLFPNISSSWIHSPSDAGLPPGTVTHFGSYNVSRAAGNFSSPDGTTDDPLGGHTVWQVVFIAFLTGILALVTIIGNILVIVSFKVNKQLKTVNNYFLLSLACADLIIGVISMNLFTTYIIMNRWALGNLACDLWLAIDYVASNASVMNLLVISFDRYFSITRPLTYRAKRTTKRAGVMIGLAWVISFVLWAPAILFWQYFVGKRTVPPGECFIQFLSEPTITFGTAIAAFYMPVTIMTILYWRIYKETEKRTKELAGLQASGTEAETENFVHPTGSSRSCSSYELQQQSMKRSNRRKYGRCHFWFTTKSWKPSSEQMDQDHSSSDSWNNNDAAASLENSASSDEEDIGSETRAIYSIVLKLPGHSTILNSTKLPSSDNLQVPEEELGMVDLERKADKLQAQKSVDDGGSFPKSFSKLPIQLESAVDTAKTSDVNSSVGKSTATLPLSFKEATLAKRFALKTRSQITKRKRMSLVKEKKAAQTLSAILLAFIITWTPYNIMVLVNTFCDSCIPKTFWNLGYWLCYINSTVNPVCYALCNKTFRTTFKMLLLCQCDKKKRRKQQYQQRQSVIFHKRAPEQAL

- Mean % ([1]; Alpha1D, mean inhibition): -12.86%
- Inhibition 1 ([1]; Alpha1D, replicate 1): -4.16%
- Inhibition 2 ([1]; Alpha1D, replicate 2): -21.92%
- Inhibition 3 ([1]; Alpha1D, replicate 3): -15.38%
- Inhibition 4 ([1]; Alpha1D, replicate 4): -9.98%
- Mean % ([2]; Alpha1B, mean inhibition): -0.37%
- Inhibition 1 ([2]; Alpha1B, replicate 1): -2.21%
- Inhibition 2 ([2]; Alpha1B, replicate 2): 6.62%
- Inhibition 3 ([2]; Alpha1B, replicate 3): -2.78%
- Inhibition 4 ([2]; Alpha1B, replicate 4): -3.12%
- Mean % ([3]; H2, mean inhibition): -21%
- Inhibition 1 ([3]; H2, replicate 1): -8.72%
- Inhibition 2 ([3]; H2, replicate 2): -33.49%
- Inhibition 3 ([3]; H2, replicate 3): -19.51%
- Inhibition 4 ([3]; H2, replicate 4): -22.27%
- Mean % ([4]; MOR, mean inhibition): -0.18%
- Inhibition 1 ([4]; MOR, replicate 1): -0.8%
- Inhibition 2 ([4]; MOR, replicate 2): 0.06%
- Inhibition 3 ([4]; MOR, replicate 3): 1.4%
- Inhibition 4 ([4]; MOR, replicate 4): -1.38%
- Mean % ([5]; 5-HT7A, mean inhibition): 35.21%
- Inhibition 1 ([5]; 5-HT7A, replicate 1): 10.61%
- Inhibition 2 ([5]; 5-HT7A, replicate 2): 51.06%
- Inhibition 3 ([5]; 5-HT7A, replicate 3): 19.91%
- Inhibition 4 ([5]; 5-HT7A, replicate 4): 59.27%
- Mean % ([6]; 5-HT1E, mean inhibition): 1.71%
- Inhibition 1 ([6]; 5-HT1E, replicate 1): 1.79%
- Inhibition 2 ([6]; 5-HT1E, replicate 2): 6.56%
- Inhibition 3 ([6]; 5-HT1E, replicate 3): 8.79%
- Inhibition 4 ([6]; 5-HT1E, replicate 4): -10.29%
- Mean % ([7]; M3, mean inhibition): 1.63%
- Inhibition 1 ([7]; M3, replicate 1): 7.99%
- Inhibition 2 ([7]; M3, replicate 2): 2.67%
- Inhibition 3 ([7]; M3, replicate 3): -7.08%
- Inhibition 4 ([7]; M3, replicate 4): 2.95%
- clearance [8, 9]: 26.3 mL/min/kg
- Cmax ([8]; CD1, plasma, mouse, 3.0 mg/kg): 4010 ng/mL
- half-life ([8]; CD1, plasma, mouse, 3.0 mg/kg): 38.4 min
- Vd ([8]; CD1, plasma, mouse, 3.0 mg/kg): 0.62 L/kg
SMILES: CNc1nc(C)nc(N[C@H]2CCC[C@@H](C(=O)NCc3ccc(C#N)cc3C(F)(F)F)C2)n1 [UNC10302679A, GSK2256294A]
- Reported as cell active (<10 μM) (cellular system): Y (Published data supports that the compound is active in a cellular system when dosed at 10 μM (Y/N))

SMILES: O=c1oc2ccccc2cc1-c1cn2cc(Cc3ccc(F)cc3)sc2n1 [UNC10302680A, iMDK]
- Reported as cell active (<10 μM) (cellular system): Y (Published data supports that the compound is active in a cellular system when dosed at 10 μM (Y/N))
- Inhibition 1 ([1]; Receptor Alpha1D, 10 μM): -7.71%
- Inhibition 2 ([1]; Receptor Alpha1D, 10 μM): -9.56%
- Inhibition 3 ([1]; Receptor Alpha1D, 10 μM): -10.98%
- Inhibition 4 ([1]; Receptor Alpha1D, 10 μM): -17.23%
- Mean % [1, 10]: -11.37%
- Inhibition 1 ([2]; Receptor Alpha1B, 10 μM): 2.49%
- Inhibition 2 ([2]; Receptor Alpha1B, 10 μM): 0.66%
- Inhibition 3 ([2]; Receptor Alpha1B, 10 μM): -2.09%
- Inhibition 4 ([2]; Receptor Alpha1B, 10 μM): -5.18%
- Mean % [2, 11]: -1.03%
- Mean % ([3]; H2, mean inhibition): 13.61%
- Inhibition 1 ([3]; H2, replicate 1): 32.28%
- Inhibition 2 ([3]; H2, replicate 2): 15.29%
- Inhibition 3 ([3]; H2, replicate 3): 9.61%
- Inhibition 4 ([3]; H2, replicate 4): -2.74%
- Inhibition 1 ([4]; Receptor MOR, 10 μM): 9.07%
- Inhibition 2 ([4]; Receptor MOR, 10 μM): 9.93%
- Inhibition 3 ([4]; Receptor MOR, 10 μM): 2.65%
- Inhibition 4 ([4]; Receptor MOR, 10 μM): 1.88%
- Mean % [4, 12]: 5.88%
- Inhibition 1 ([5]; Receptor 5-HT7A, 10 μM): 13.87%
- Inhibition 2 ([5]; Receptor 5-HT7A, 10 μM): 2.87%
- Inhibition 3 ([5]; Receptor 5-HT7A, 10 μM): -0.54%
- Inhibition 4 ([5]; Receptor 5-HT7A, 10 μM): 21.31%
- Mean % [5, 13]: 9.38%
- Inhibition 1 ([6]; Receptor 5-HT1E, 10 μM): 3.08%
- Inhibition 2 ([6]; Receptor 5-HT1E, 10 μM): -14.65%
- Inhibition 3 ([6]; Receptor 5-HT1E, 10 μM): -14.65%
- Inhibition 4 ([6]; Receptor 5-HT1E, 10 μM): -17.01%
- Mean % [6, 14]: -10.81%
- Inhibition 1 ([7]; Receptor M3, 10 μM): 9.1%
- Inhibition 2 ([7]; Receptor M3, 10 μM): 60.54%
- Inhibition 3 ([7]; Receptor M3, 10 μM): 10.14%
- Inhibition 4 ([7]; Receptor M3, 10 μM): 13.11%
- Mean % [7, 15]: 23.22%
- clearance [8, 9]: 37.8 mL/min/kg
- Cmax ([8]; CD1, plasma, mouse, 3.0 mg/kg): 1570 ng/mL
- half-life ([8]; CD1, plasma, mouse, 3.0 mg/kg): 69.6 min
- Vd ([8]; CD1, plasma, mouse, 3.0 mg/kg): 2.61 L/kg

SMILES: c1cn2cc(-c3ccc4cn[nH]c4c3)nc(Nc3ccc(N4CCOCC4)cc3)c2n1 [UNC10302678A, Entospletinib (GS-9973)]
- Reported as cell active (<10 μM) (cellular system): Y (Published data supports that the compound is active in a cellular system when dosed at 10 μM (Y/N))
- Inhibition 1 ([1]; Receptor Alpha1D, 10 μM): -9.56%
- Inhibition 2 ([1]; Receptor Alpha1D, 10 μM): -12.54%
- Inhibition 3 ([1]; Receptor Alpha1D, 10 μM): -12.26%
- Inhibition 4 ([1]; Receptor Alpha1D, 10 μM): -10.27%
- Mean % [1, 10]: -11.16%
- Inhibition 1 ([2]; Receptor Alpha1B, 10 μM): 3.98%
- Inhibition 2 ([2]; Receptor Alpha1B, 10 μM): -28.67%
- Inhibition 3 ([2]; Receptor Alpha1B, 10 μM): -18.82%
- Inhibition 4 ([2]; Receptor Alpha1B, 10 μM): -2.78%
- Mean % [2, 11]: -11.57%
- Inhibition 1 ([3]; Receptor H2, 10 μM): 34.86%
- Inhibition 2 ([3]; Receptor H2, 10 μM): 31.07%
- Inhibition 3 ([3]; Receptor H2, 10 μM): 0.58%
- Inhibition 4 ([3]; Receptor H2, 10 μM): -19.99%
- Mean % ([3]; Receptor H2, 10 μM, mean of Inhibition 1-4): 11.63%
- Inhibition 1 ([4]; Receptor MOR, 10 μM): -0.9%
- Inhibition 2 ([4]; Receptor MOR, 10 μM): 12.23%
- Inhibition 3 ([4]; Receptor MOR, 10 μM): 5.91%
- Inhibition 4 ([4]; Receptor MOR, 10 μM): -3.58%
- Mean % [4, 12]: 3.42%
- Inhibition 1 ([5]; Receptor 5-HT7A, 10 μM): 7.05%
- Inhibition 2 ([5]; Receptor 5-HT7A, 10 μM): 11.23%
- Inhibition 3 ([5]; Receptor 5-HT7A, 10 μM): 9.37%
- Inhibition 4 ([5]; Receptor 5-HT7A, 10 μM): 35.72%
- Mean % [5, 13]: 15.84%
- Inhibition 1 ([6]; Receptor 5-HT1E, 10 μM): -2.53%
- Inhibition 2 ([6]; Receptor 5-HT1E, 10 μM): -10.95%
- Inhibition 3 ([6]; Receptor 5-HT1E, 10 μM): -16.42%
- Inhibition 4 ([6]; Receptor 5-HT1E, 10 μM): -0.46%
- Mean % [6, 14]: -7.59%
- Inhibition 1 ([7]; Receptor M3, 10 μM): 13.32%
- Inhibition 2 ([7]; Receptor M3, 10 μM): 23.97%
- Inhibition 3 ([7]; Receptor M3, 10 μM): 7.51%
- Inhibition 4 ([7]; Receptor M3, 10 μM): 7.37%
- Mean % [7, 15]: 13.04%
- Cmax ([8]; CD1, in vivo, mouse, 3.0 mg/kg): 926 ng/mL
- clearance ([8]; CD1, plasma, mouse, 3.0 mg/kg): 28.5 mL/min/kg
- half-life ([8]; CD1, plasma, mouse, 3.0 mg/kg): 54 min
- Vd ([8]; CD1, plasma, mouse, 3.0 mg/kg): 2.34 L/kg
